The values below are quoted from earlier work in patent US9663525B2, “Pyrazolopyrimidinyl inhibitors of ubiquitin-activating enzyme” (Millennium Pharmaceuticals, Inc., priority 2012, dated 2017).

Data set [1] has as its system leukemia and myeloma cell lines. To be noted: cited from earlier work.
Data set [2] deals with mouse acute myeloid leukemia (AML model). To be noted: cited from earlier work.

As to `O=C1NN(c2ccc(F)c(Cl)c2)C(=O)/C1=C\c1ccc([N+](=O)[O-])o1` [PYZD-4409], the cell death entry in data set [1] is reported as “induced cell death”. The anti-tumor activity result in data set [2] is “demonstrated anti-tumor activity”.
